According to patent publication US11667961B2, “Intercalating fluorescent dyes for labelling nucleic acids and preparation method thereof” (Bioacts Corporation, priority 2020, dated 2023):
“Also recorded” adds a separate entry of the source.

Tests used:
[1] = test system: double-stranded DNA (cDNA extracted from HeLa cells, b-actin primer); test: Compound analysis through real-time PCR by intercalating method (double-stranded DNA binding dyes); type: biochemical; details: for fluorescence signal / fluorescence intensity during DNA synthesis (FIG. 1): 1 uL of 200 uM dye in 20 uL reaction, fluorescence wavelength of 497 nm detected; for Cq value (FIG. 3): 45 cycles, HeLa cDNA template
Protocol: Compounds 8, 9, 10, 15, 16, and 17 were dissolved in dimethyl sulfoxide to prepare 5 mM of a stock solution. The prepared stock solution was diluted in a Tris-EDTA buffer (pH 7.5) and prepared at a concentration of 200 uM.
For Reference material 1, 10,000× of the stock solution was diluted to a concentration of 20× through a Tris-EDTA buffer (pH 7.5). For Reference material 2, 20,000× of the stock solution was diluted to a concentration of 20× through a Tris-EDTA buffer (pH 7.5).
Reference materials 1 (Evagreen) and 2 (Invitrogen Sybr Green) and Compounds 8, 9, 10, 15, 16, and 17 were compared and verified by an intercalating method using a double-stranded DNA binding dyes through real-time PCR. cDNA extracted from HeLa cells was used, and b-actin (Forward 5′-CATCGAGCACGGCATCGTCA-3′, Reverse 5′-TAGCACAGCCTGGATAGCAAC-3′) was used as a primer. Real-time PCR reaction was performed using a CFX96 touch real-time PCR detection system (BIO-RAD). The PCR mixture consisted of a total 20 uL of reaction solution containing 1 uL of a forward primer, 1 uL of a reverse primer, 10 uL of a PCR master mix (TAKARA), 1 uL of a reference material and each compound (Compounds 8, 9, 10, 15, 16, 17), and 1 uL of template cDNA. PCR conditions were as follows: (a) In a pre-denaturing step, 1 minute at 95° C. (b) 45 cycles are configured as a cycle consisting of at 95° C. for 15 seconds, 58° C. for 30 seconds and 72° C. for 30 seconds, and a fluorescence wavelength of 497 nm was detected in a cycle of 30 seconds at 72° C.

[2] = Stability analysis: storage in incubator at 60° C. for 3 days, then real-time PCR fluorescence; type: physicochemical; details: for change in fluorescence intensity after reaction at 60° C. for 3 days (FIGS. 11-14): stored in incubator at 60° C. for 3 days, real-time PCR for each template concentration
Protocol: Stability analysis was performed by storing Reference materials 1 (Evagreen) and 2 (Invitrogen Sybr Green) and Compound 16 in an incubator at 60° C. The three materials were stored in an incubator at 60° C. for 3 days, and the fluorescence signals for each template concentration were analyzed by real-time PCR analysis as in (1) above, and the PCR product was electrophoresed to analyze whether normal DNA synthesis was achieved. After real-time-PCR, synthetic DNA and a 6× Loading dye (BioActs) were mixed, and then electrophoresis was performed for 35 minutes on a 2% agarose gel (Simga-aldrich).

Row | change in fluorescence intensity after reaction at 60° C. for 3 days (FIGS. 11-14) [2] | Compound | fluorescence signal / fluorescence intensity during DNA synthesis (FIG. 1) [1] | Cq value (FIG. 3) [1] | stability compared with Reference material 2 ([2]; 60° C. for 3 days) | Cq value relative to Reference material 1 (FIG. 6) ([1]; compared with Evagreen) | fluorescence intensity relative to Reference materials 1 and 2 (FIG. 4) ([1]; compared with Evagreen and Sybr Green at 20×)
1 | – | C=CS(=O)(=O)CCNC(=O)CCCN(C)C1=C/C(=C\c2oc3ccccc3[n+]2C)c2ccccc2N1c1ccccc1 [Compound 8] | not strongly observed | not much confirmed | – | – | –
2 | – | CN(C)CCCNC(=O)CCCN(C)C1=C/C(=C\c2oc3ccccc3[n+]2C)c2ccccc2N1c1ccccc1 [Compound 9] | not strongly observed | not much confirmed | – | – | –
3 | – | CCCCCCCCNC(=O)CCCN(C)C1=C/C(=C\c2oc3ccccc3[n+]2C)c2ccccc2N1c1ccccc1 [Compound 10] | not strongly observed | not much confirmed | – | – | –
4 | – | C=CS(=O)(=O)CCNC(=O)CCCN(C)C1=C/C(=C\c2sc3ccccc3[n+]2C)c2ccccc2N1c1ccccc1 [Compound 15] | emit visible fluorescence; also recorded: not much strong | – | – | – | –
5 | no significant change | CN(C)CCCNC(=O)CCCN(C)C1=C/C(=C\c2sc3ccccc3[n+]2C)c2ccccc2N1c1ccccc1 [Compound 16] | emit visible fluorescence; also recorded: very strong | fastest | more stable material than Reference material 2 | faster than that of Reference material 1 | two times higher
6 | – | CCCCCCCCNC(=O)CCCN(C)C1=C/C(=C\c2oc3ccccc3[n+]2C)c2ccccc2N1c1ccccc1 [Compound 17] | emit visible fluorescence; also recorded: not much strong | hardly confirmed | – | – | –
7 | decreased by about half | CCCN(CCCN(C)C)c1cc(/C=C2/Sc3ccccc3N2C)c2ccccc2[n+]1-c1ccccc1 [Reference material 2, reference compound] | – | – | – | – | –
